# In ChEMBL document CHEMBL5614431, “Discovery of 1,3,4-oxadiazoles with slow-action activity against Plasmodium falciparum malaria parasites” (Eur J Med Chem, 2024):
# Active and inactive are the calls of the source. The rule behind the calls is not given here.
# Legend:
# [1] = Cytotoxicity against human NFF cells assessed as reduction in cell viability incubated for 72 hrs by SRB assay; assay type: toxicity, cell-based
# Plasmodium berghei [2] = experiment: Antimalarial activity against Plasmodium berghei ANKA infected in female BALB/c mouse model assessed as reduction in parasitemia at 10 mg/kg, po qd pre-infected for 2 hrs followed by compound addition and measured after 3 days by microscopic analysis; assay type: functional, organism-based; details: time 3.0 day
# Plasmodium falciparum [3] = experiment: Antimalarial activity against synchronous ring stage Plasmodium falciparum 3D7 infected in human Erythrocyte assessed as inhibition of parasite growth incubated for 48 hrs by [3H]-hypoxanthine incorporation assay; assay type: functional, organism-based; details: 3D7, Erythrocyte
# Plasmodium falciparum [4] = experiment: Antimalarial activity against synchronous ring stage Plasmodium falciparum 3D7 infected in human Erythrocyte assessed as inhibition of parasite growth incubated for 96 hrs by [3H]-hypoxanthine incorporation assay; assay type: functional, organism-based; details: 3D7, Erythrocyte
# [5] = Selectivity ratio of IC50 for antimalarial activity against synchronous ring stage Plasmodium falciparum 3D7 infected in human Erythrocyte assessed as inhibition of parasite growth incubated for 48 hrs by [3H]-hypoxanthine incorporation assay to IC50 for antimalarial activity against synchronous ring stage Plasmodium falciparum 3D7 infected in human Erythrocyte assessed as inhibition of parasite growth incubated for 48 hrs by [3H]-hypoxanthine incorporation assay; assay type: functional
# [6] = Selectivity index, ratio of IC50 for cytotoxicity against human NFF cells to IC50 for antimalarial activity against synchronous ring stage Plasmodium falciparum 3D7 infected in human Erythrocyte assessed as inhibition of parasite growth incubated for 96 hrs; assay type: toxicity, cell-based; details: read-out: Ratio IC50
# [7] = Apparent half life in non fasted female BALB/c mouse at 100 mg/kg, po via gavage and measured upto 24 hrs by LC-MS analysis; assay type: ADME, organism-based; details: in vivo, read-out: t1/2(app) (converted)
# [8] = Cmax in non fasted female BALB/c mouse plasma at 100 mg/kg, po via gavage and measured upto 24 hrs by LC-MS analysis; assay type: ADME, organism-based
# [9] = Tmax in non fasted female BALB/c mouse at 100 mg/kg, po via gavage and measured upto 24 hrs by LC-MS analysis; assay type: ADME, organism-based; details: in vivo
# [10] = AUC (0 to t) in non fasted female BALB/c mouse plasma at 100 mg/kg, po via gavage and measured after 4 hrs by LC-MS analysis; assay type: ADME, organism-based
# [11] = AUC (0 to infinity) in non fasted female BALB/c mouse at 100 mg/kg, po via gavage and measured upto 24 hrs by LC-MS analysis; assay type: ADME, organism-based; details: in vivo
# [12] = AUC (0 to t) in non fasted female BALB/c mouse plasma at 100 mg/kg, po via gavage and measured after 7.5 hrs by LC-MS analysis; assay type: ADME, organism-based
# Plasmodium falciparum [13] = experiment: Antimalarial activity against multidrug-resistant synchronous ring stage Plasmodium falciparum Dd2 infected in human Erythrocyte assessed as inhibition of parasite growth incubated for 48 hrs by [3H]-hypoxanthine incorporation assay; assay type: functional, organism-based
# Plasmodium falciparum [14] = experiment: Antimalarial activity against multidrug-resistant synchronous ring stage Plasmodium falciparum Dd2 infected in human Erythrocyte assessed as inhibition of parasite growth incubated for 96 hrs by [3H]-hypoxanthine incorporation assay; assay type: functional, organism-based
# [15] = Selectivity ratio of IC50 for antimalarial activity against multidrug-resistant synchronous ring stage Plasmodium falciparum Dd2 infected in human Erythrocyte assessed as inhibition of parasite growth incubated for 48 hrs by [3H]-hypoxanthine incorporation assay to IC50 for antimalarial activity against multidrug-resistant synchronous ring stage Plasmodium falciparum Dd2 infected in human …; assay type: functional
# Plasmodium falciparum [16] = experiment: Resistance index, ratio of IC50 for antimalarial activity against multidrug-resistant synchronous ring stage Plasmodium falciparum Dd2 infected in human Erythrocyte assessed as inhibition of parasite growth incubated for 96 hrs by [3H]-hypoxanthine incorporation assay to IC50 for antimalarial activity against synchronous ring stage Plasmodium falciparum 3D7 infected in human Erythrocyte assessed …; assay type: toxicity, organism-based
# Plasmodium falciparum [17] = experiment: Antimalarial activity against synchronous ring stage Plasmodium falciparum 3D7 infected in human Erythrocyte assessed as inhibition of parasite growth incubated for 96 hrs supplemented with IPP by [3H]-hypoxanthine incorporation assay; assay type: functional, organism-based; details: 3D7, Erythrocyte
# [18] = Selectivity ratio of IC50 for antimalarial activity against synchronous ring stage Plasmodium falciparum 3D7 infected in human Erythrocyte assessed as inhibition of parasite growth incubated for 96 hrs supplemented with IPP by [3H]-hypoxanthine incorporation assay to IC50 for antimalarial activity against synchronous ring stage Plasmodium falciparum 3D7 infected in human Erythrocyte assessed as …; assay type: functional
# [19] = Metabolic stability in human liver microsomes assessed as half life; assay type: ADME, Microsome
# [20] = Metabolic stability in mouse liver microsomes assessed as half life; assay type: ADME, Microsome
# [21] = Apparent permeability of the compound in human Caco-2 cells across apical to basolateral side; assay type: ADME, cell-based
# [22] = Chemical stability of the compound in 1:1 mixture of 6M aqueous hydrochloric acid/THF assessed as degradation measured over 20 hrs; assay type: physicochemical; details: buffer
# [23] = Toxicity in female BALB/c mouse assessed as adverse clinical effect at 116 mg/kg, po via gavage administered once for 3 days; assay type: organism-based; details: in vivo, 72 h, time 3 day
# [24] = Toxicity in female BALB/c mouse assessed as appearance of ruffled coats in animal at 116 mg/kg, po via gavage administered once daily for 3 days; assay type: organism-based; details: in vivo, 72 h, time 3 day
# [25] = Toxicity in female BALB/c mouse assessed as effect on liver at 116 mg/kg, po via gavage administered once daily for 3 days; assay type: organism-based; details: in vivo, 72 h, time 3 day
# [26] = Toxicity in female BALB/c mouse assessed as effect on kidney at 116 mg/kg, po via gavage administered once daily for 3 days; assay type: organism-based; details: in vivo, 72 h, time 3 day
# [27] = Toxicity in female BALB/c mouse assessed as adverse clinical effect at 116 mg/kg, po via gavage administered twice for 3 days; assay type: organism-based; details: in vivo, 72 h, time 3 day
# [28] = Toxicity in female BALB/c mouse assessed as appearance of ruffled coats in animal at 116 mg/kg, po via gavage administered twice daily for 3 days; assay type: organism-based; details: in vivo, 72 h, time 3 day
# [29] = Toxicity in female BALB/c mouse assessed as effect on liver at 116 mg/kg, po via gavage administered twice daily for 3 days; assay type: organism-based; details: in vivo, 72 h, time 3 day
# [30] = Toxicity in female BALB/c mouse assessed as effect on kidney at 116 mg/kg, po via gavage administered twice daily for 3 days; assay type: organism-based; details: in vivo, 72 h, time 3 day
# Plasmodium berghei [31] = experiment: Antimalarial activity against Plasmodium berghei ANKA infected in female BALB/c mouse model assessed as reduction in parasitemia at 100 mg/kg, po qd pre-infected for 2 hrs followed by compound addition and measured after 3 days by microscopic analysis; assay type: functional, organism-based; details: time 3.0 day
# Plasmodium berghei [32] = experiment: Antimalarial activity against Plasmodium berghei ANKA infected in female BALB/c mouse model assessed as reduction in parasitemia at 100 mg/kg, po bid pre-infected for 2 hrs followed by compound addition and measured after 3 days by microscopic analysis; assay type: functional, organism-based; details: time 3.0 day
# [33] = Chemical stability of the compound in aqueous buffer/THF assessed as degradation measured over 24 hrs; assay type: physicochemical
# [34] = Plasma concentration in female BALB/c mouse at 100 mg/kg, po measured after 7.5 hrs; assay type: ADME, organism-based; details: in vivo, BLD = below limit of detection
Cmax [8],Tmax [9],Compound,IC50 at 72 h [1],IC50 (Plasmodium falciparum [3]),IC50 (Plasmodium falciparum [4]),Ratio IC50 [5],selectivity ratio at 96 h [6],IC50 (Plasmodium falciparum [17]),Ratio IC50 [18],half-life [19],half-life [20],other results
,,CCN(CC)CCCC(C)Nc1ccnc2cc(Cl)ccc12 (stereo not given) [CHLOROQUINE],36.7 µM,,,,,,,,,Activity (Plasmodium berghei [2]): Active
2140 nM,15 min,O=S(=O)(CC1CCC1)c1nnc(N2CCOCC2)o1,> 100 µM,> 10 µM,530 nM,>19,> 186,,,,,half-life [7]: 57 min; AUC(0-t) at 4 h [10]: 3.61 µM·h; AUC(0-inf) [11]: 3.91 µM·h
650 nM,15 min,O=S(=O)(c1nnc(N2CCOCC2)o1)C1CCCCCC1,> 100 µM,> 25 µM,180 nM,>137,> 769,,,,,AUC(0-t) at 7.5 h [12]: 1.16 µM·h
,,Cc1ccc(C)c(CS(=O)(=O)c2nnc(N3CCOCC3)o2)c1,20.4 µM,12.4 µM,840 nM,15,24,840 nM,1,5 min,3 min,IC50 (Plasmodium falciparum [13]): 13 µM; IC50 (Plasmodium falciparum [14]): 570 nM; Ratio IC50 [15]: 23; Ratio IC50 (Plasmodium falciparum [16]): 0.7; Papp A→B [21]: 39 ×10⁻⁶ cm/s
310 nM,30 min,C[C@@H]1CCC[C@H](C)N1c1nnc(S(=O)(=O)C2CCCCC2)o1,> 100 µM,> 12.5 µM,80 nM,>165,> 1670,,,,,half-life [7]: 96 min; AUC(0-t) at 7.5 h [12]: 0.39 µM·h; AUC(0-inf) [11]: 0.41 µM·h; Stability [22]: Stable
,,O=S(=O)(c1nnc(N2CCC3(CC2)COC3)o1)C1CCCCC1,> 100 µM,> 10 µM,100 nM,>102,> 1020,,,112 min,18 min,Papp A→B [21]: 44 ×10⁻⁶ cm/s
,,CCC[C@@H]1C[C@@H](C(=O)N[C@@H]([C@H]2O[C@H](SC)[C@H](O)[C@@H](O)[C@H]2O)[C@H](C)Cl)N(C)C1 [CLINDAMYCIN],,,,,,> 25000 nM,3571,,,
,,O=S(=O)(c1nnc(N2CCCCCC2)o1)C1CCCCC1,> 100 µM,> 10 µM,90 nM,>114,> 1150,,,68 min,7 min,
,,CC1CCN(c2nnc(S(=O)(=O)Cc3ccc(Cl)c(Cl)c3)o2)CC1,26 µM,11.5 µM,160 nM,72,162,200 nM,1,3 min,< 2 min,IC50 (Plasmodium falciparum [13]): 10.1 µM; IC50 (Plasmodium falciparum [14]): 70 nM; Ratio IC50 [15]: 145; Ratio IC50 (Plasmodium falciparum [16]): 0.4
,,O=S(=O)(c1nnc(N2C3CCCC2CC3)o1)C1CCCCC1,> 100 µM,> 25 µM,410 nM,>61,> 246,,,,,

Compound,Cmax [8],Tmax [9],IC50 at 72 h [1],IC50 (Plasmodium falciparum [3]),IC50 (Plasmodium falciparum [4]),Ratio IC50 [5],selectivity ratio at 96 h [6],IC50 (Plasmodium falciparum [17]),Ratio IC50 [18],half-life [19],half-life [20],other results
O=S(=O)(c1nnc(N2CCOCC2)o1)C1CCCCC1,7610 nM,15 min,> 100 µM,> 50 µM,550 nM,>91,> 182,1790 nM,3,> 255 min,99 min,IC50 (Plasmodium falciparum [13]): > 25 µM; IC50 (Plasmodium falciparum [14]): 500 nM; Ratio IC50 [15]: >50; Ratio IC50 (Plasmodium falciparum [16]): 1; Papp A→B [21]: 86 ×10⁻⁶ cm/s; AUC(0-t) at 7.5 h [12]: 11.5 µM·h; Activity [23]: Non-Toxic; Activity [24]: Toxic; Activity [25]: Non-Toxic; Activity [26]: Non-Toxic; Activity [27]: Non-Toxic; Activity [28]: Toxic; Activity [29]: Non-Toxic; Activity [30]: Non-Toxic; Activity (Plasmodium berghei [31]): Active; Activity (Plasmodium berghei [32]): Active; Stability [33]: Stable; Stability [22]: Unstable; Cp [34]: Bld
